Reference: patent US11446282B2, “Methods of treating mixed dyslipidemia and hypertriglycertdemia” (Kowa Company, Ltd., priority 2017, dated 2022)

Tested on: dyslipidemic patients with or without statin
Test: Example 4 pooled analysis of phase 2 and 3 studies: safety parameters
Assay type: in vivo, human
Settings: Without Statin
Procedure: The present study analyzed data combined from 6 randomized double-blind placebo-controlled studies that were conducted in Japan and continued for 12 weeks unless otherwise noted: a phase 2 study in 224 patients with a history of documented dyslipidemia and plasma TG of 200 mg/dL (2.26 mmol/L) or higher, randomized to placebo, pemafibrate 0.05, 0.1, 0.2, 0.4 mg/day, or fenofibrate 100 mg/day; a phase 3 study in 526 patients with dyslipidemia, high TG levels, and low HDL-C levels, randomized to placebo, pemafibrate 0.1, 0.2, or 0.4 mg/day, or fenofibrate 100 or 200 mg/day; a study in 188 patients with dyslipidemia, randomized to pitavastatin in combination with pemafibrate 0.1, 0.2, or 0.4 mg/day; a 24-week study in 423 patients with dyslipidemia, randomized to pemafibrate 0.2 mg/day (fixed dose) or 0.2 [0.4] mg/day (conditional up-titration) with any statin; a 24-week phase 3 study in 166 patients with type 2 diabetes and hypertriglyceridemia, randomized to placebo or pemafibrate 0.2 or 0.4 mg/day; and a study in 27 patients with hypertriglyceridemia and insulin resistance, randomized to pemafibrate 0.4 mg/day or placebo. All studies were approved by the Institutional Review Board for each study institution and were conducted in accordance with the Declaration of Helsinki and under the guidelines of Good Clinical Practice.
In this study, we evaluated the efficacy and safety of pemafibrate at doses of 0.1 mg/day, 0.2 mg/day, and 0.4 mg/day, with and without statin. The primary efficacy endpoint was percent change in TG from baseline to 12 weeks. The secondary efficacy endpoints were also assessed from baseline to 12 weeks: percent change in HDL-C, LDL-C, non-HDL-C, TC, RemL-C, Apo AI, Apo AII, Apo B, Apo B48, Apo CII, Apo CIII, Apo CIII/Apo CII, and Apo E; percent change in HPLC findings for CM-C, VLDL-C, cholesterol content in 4 subclasses of LDL (large, medium, small, and very small LDLs), and cholesterol content for 5 subclasses of HDL (very large, large, medium, small, and very small HDLs); and changes in fibrinogen and FGF21. The primary safety endpoints were the incidence of adverse events and adverse drug reactions. Secondary safety endpoints were percentage of values above the upper limit of normal range for AST, ALT, sCr and CK, and change in sCr eGFR, CK, AST, ALT, gamma-glutamyl transferase (γ-GT), alkaline phosphatase (ALP), and total bilirubin.
Patients with renal dysfunction were defined as those with baseline eGFR<60 mL/min/1.73 m^2. Analysis was stratified by the presence or absence of renal dysfunction in the concomitant statin group, and efficacy and safety of pemafibrate were evaluated. In efficacy and safety evaluations excluding AEs, ADRs, and cutoff values for AST, ALT, sCr, and CK, findings were combined for pemafibrate subgroups receiving doses of 0.1 mg/day, 0.2 mg/day, and 0.4 mg/day.
For each lipid parameter, gel filtration HPLC was performed at Skylight Biotech, Inc. Other measurements were performed at LSI Medience Corporation. The FAS was used for analyzing efficacy parameters of effects on lipids, fibrinogen, and FGF21. The safety analysis set was used for safety parameters and included all patients who received at least one dose of the study drug. For lipid parameters, fibrinogen, and FGF21, LS means (95% confidence interval) were calculated at Week 12 (LOCF) using analysis of covariance (ANCOVA) with baseline values as the co-variable within each category. For safety parameters, LS means (95% confidence interval) were calculated at Week 12 using ANCOVA with baseline values as the co-variable within each category. SAS version 9.2 was used for analyses.

CC[C@@H](Oc1cccc(CN(CCCOc2ccc(OC)cc2)c2nc3ccccc3o2)c1)C(=O)O [Pemafibrate, (2R)-2-[3-({1,3-benzoxazol-2-yl[3-(4-methoxyphenoxy)propyl]amino}methyl)phenoxy]butanoic acid] was tested, and the “ADE Leading to withdrawal, number of patients” value (0.1 mg/day, n=82) was 1, the “ADE Leading to withdrawal, percentage of patients” value (0.1 mg/day, n=82) was “(1.2) percentage” and the “ADE Serious, number of patients” value (0.1 mg/day, n=82) was 0. For the same molecule, the “ADE Total, number of patients” value (0.1 mg/day, n=82) was 3, the “ADE Total, percentage of patients” value (0.1 mg/day, n=82) was “(3.7) percentage” and the “AE Leading to withdrawal, number of patients” value (0.1 mg/day, n=82) was 2. The “AE Leading to withdrawal, percentage of patients” value (0.1 mg/day, n=82) was “(2.4) percentage”, the “AE Serious, number of patients” value (0.1 mg/day, n=82) was 1 and the “AE Serious, percentage of patients” value (0.1 mg/day, n=82) was “(1.2) percentage”. For the same molecule, the “AE Total, number of patients” value (0.1 mg/day, n=82) was 27, the “AE Total, percentage of patients” value (0.1 mg/day, n=82) was “(32.9) percentage” and the “ALT ≥ ULN × 3, number of patients” value (0.1 mg/day, n=82) was 0. For the same molecule, the “AST ≥ ULN × 3, number of patients” value (0.1 mg/day, n=82) was 0, the “CK ≥ 2.5 and < ULN × 5, number of patients” value (0.1 mg/day, n=82) was 2 and the “CK ≥ 2.5 and < ULN × 5, percentage of patients” value (0.1 mg/day, n=82) was “(2.4) percentage”. For the same molecule, the “CK ≥ 5 and < ULN × 10, number of patients” value (0.1 mg/day, n=82) was 0, the “CK ≥ ULN × 10, number of patients” value (0.1 mg/day, n=82) was 0 and the “sCr ≥ ULN, number of patients” value (0.1 mg/day, n=82) was 15. For the same molecule, the “sCr ≥ ULN, percentage of patients” value (0.1 mg/day, n=82) was “(18.3) percentage”, the “ADE Leading to withdrawal, number of patients” value (0.2 mg/day, n=202) was 2 and the “ADE Leading to withdrawal, percentage of patients” value (0.2 mg/day, n=202) was “(1.0) percentage”. The “ADE Serious, number of patients” value (0.2 mg/day, n=202) was 1, the “ADE Serious, percentage of patients” value (0.2 mg/day, n=202) was “(0.5) percentage” and the “ADE Total, number of patients” value (0.2 mg/day, n=202) was 14. For the same molecule, the “ADE Total, percentage of patients” value (0.2 mg/day, n=202) was “(6.9) percentage”, the “AE Leading to withdrawal, number of patients” value (0.2 mg/day, n=202) was 3 and the “AE Leading to withdrawal, percentage of patients” value (0.2 mg/day, n=202) was “(1.5) percentage”. For the same molecule, the “AE Serious, number of patients” value (0.2 mg/day, n=202) was 4, the “AE Serious, percentage of patients” value (0.2 mg/day, n=202) was “(2.0) percentage” and the “AE Total, number of patients” value (0.2 mg/day, n=202) was 78. The “AE Total, percentage of patients” value (0.2 mg/day, n=202) was “(38.6) percentage”, the “ALT ≥ ULN × 3, number of patients” value (0.2 mg/day, n=202) was 0 and the “AST ≥ ULN × 3, number of patients” value (0.2 mg/day, n=202) was 0. The “CK ≥ 2.5 and < ULN × 5, number of patients” value (0.2 mg/day, n=202) was 3, the “CK ≥ 2.5 and < ULN × 5, percentage of patients” value (0.2 mg/day, n=202) was “(1.5) percentage” and the “CK ≥ 5 and < ULN × 10, number of patients” value (0.2 mg/day, n=202) was 0. For the same molecule, the “CK ≥ ULN × 10, number of patients” value (0.2 mg/day, n=202) was 0, the “sCr ≥ ULN, number of patients” value (0.2 mg/day, n=202) was 34 and the “sCr ≥ ULN, percentage of patients” value (0.2 mg/day, n=202) was “(16.8) percentage”. The “ALT ≥ ULN × 3, number of patients” value (0.4 mg/day, n=173) was 0, the “AST ≥ ULN × 3, number of patients” value (0.4 mg/day, n=173) was 1 and the “AST ≥ ULN × 3, percentage of patients” value (0.4 mg/day, n=173) was “(0.6) percentage”. For the same molecule, the “CK ≥ 2.5 and < ULN × 5, number of patients” value (0.4 mg/day, n=173) was 0, the “CK ≥ 5 and < ULN × 10, number of patients” value (0.4 mg/day, n=173) was 1 and the “CK ≥ 5 and < ULN × 10, percentage of patients” value (0.4 mg/day, n=173) was “(0.6) percentage”. For the same molecule, the “CK ≥ ULN × 10, number of patients” value (0.4 mg/day, n=173) was 1, the “CK ≥ ULN × 10, percentage of patients” value (0.4 mg/day, n=173) was “(0.6) percentage” and the “sCr ≥ ULN, number of patients” value (0.4 mg/day, n=173) was 22. For the same molecule, the “sCr ≥ ULN, percentage of patients” value (0.4 mg/day, n=173) was “(12.7) percentage”, the “ADE Leading to withdrawal, number of patients” value (0.4 mg/day, n=174) was 3 and the “ADE Leading to withdrawal, percentage of patients” value (0.4 mg/day, n=174) was “(1.7) percentage”. For the same molecule, the “ADE Serious, number of patients” value (0.4 mg/day, n=174) was 1, the “ADE Serious, percentage of patients” value (0.4 mg/day, n=174) was “(0.6) percentage” and the “ADE Total, number of patients” value (0.4 mg/day, n=174) was 16. The “ADE Total, percentage of patients” value (0.4 mg/day, n=174) was “(9.2) percentage”, the “AE Leading to withdrawal, number of patients” value (0.4 mg/day, n=174) was 6 and the “AE Leading to withdrawal, percentage of patients” value (0.4 mg/day, n=174) was “(3.4) percentage”. The “AE Serious, number of patients” value (0.4 mg/day, n=174) was 2, the “AE Serious, percentage of patients” value (0.4 mg/day, n=174) was “(1.1) percentage” and the “AE Total, number of patients” value (0.4 mg/day, n=174) was 60. For the same molecule, the “AE Total, percentage of patients” value (0.4 mg/day, n=174) was “(34.5) percentage”.
